{
  "source": "patent US10363234B2",
  "about": "“Antihypertensive agent” (WAKUNAGA PHARMACEUTICAL CO., LTD., priority 2015, dated 2019)",
  "type_in_all_cases": "in vivo, rat",
  "key": {"Normotensive Rats (WKY)": {"tested_on": "Normotensive Rats (WKY)", "test": "Single oral administration of S1PC to normotensive rats, systolic blood pressure (Test Example 4)", "conditions": "WKY/Izm rats, single oral dose 6.5 mg/kg, measured 3, 6 and 24 hours", "method": "Effect of Administering S-1-Propenylcysteine (S1PC) to Normotensive Rats (WKY)\n(§1) One group of four 8-week-old male WKY/Izm rats purchased from Japan SLC, Inc. (Hamamatsu-shi) was preliminarily bred for two weeks. During preliminary breeding, handling was performed on the rats, and the rats were bred in a constant environment (temperature; 23±1° C., humidity; 50±10%, light-dark cycle; 12 hours (light period; 7 to 19 o'clock)) and freely fed with an artificial diet (CE-2; CLEA Japan, Inc.) and sterilized tap water.\n(§2) The administration was performed by forced oral administration using a disposable feeding needle and the fluid volume to be administered was 10 mL per 1 kg of WKY weight. As a sample to be administered, about 15 mg of S-1-propenylcysteine produced in Production Example 2 (a cis- and trans-mixture) was precisely weighed and dissolved in 15 mL of purified water. […]\n(§3) Before the start of administration (0 hour) and after the administration (3, 6, and 24 hours), the systolic blood pressure at the base of each tail was measured without anesthesia using a non-preheating, non-invasive blood pressure monitor (MK-2000ST, Muromachi Kikai Co., Ltd.). Note that the measurement was performed five times per individual, the upper and lower values were eliminated, and an average of the remaining measured values was defined as a systolic blood pressure value of the individual. […]"}, "[1]": {"tested_on": "Spontaneous Hypertensive Rats (SHR)", "test": "Repeated oral administration of S1PC to spontaneous hypertensive rats for 10 weeks, systolic blood pressure (Test Example 3)", "conditions": "SHR/Izm rats, 6.5 mg/kg oral once a day for 10 weeks, two-way ANOVA", "method": "Effect of Repeated Oral Administration of S-1-Propenylcysteine (S1PC) on Spontaneous Hypertensive Rats (SHR)\nas §1, with “ten” for “four”, “SHR/Izm” for “WKY/Izm”\n(§4) The administration was performed by forced oral administration using a disposable feeding needle and the fluid volume to be administered was 10 mL per 1 kg of SHR weight. […]\nBefore the repeated oral administration (0 hour), and every other week after the administration up to 10 weeks, the systolic blood pressure at the base of each tail was measured without anesthesia using a non-preheating, non-invasive blood pressure monitor (MK-2000ST, Muromachi Kikai Co., Ltd.). Note that the measurement was performed five times per individual, the upper and lower values were eliminated, and an average of the remaining measured values was defined as a systolic blood pressure value of the individual. […]"}, "[2]": {"tested_on": "Spontaneous Hypertensive Rats (SHR)", "test": "Single oral administration of S1PC and SAC to spontaneous hypertensive rats, systolic blood pressure (Test Example 2)", "conditions": "SHR/Izm rats, single oral dose 1 mg/kg, S1PC effect 3 hours after the administration, Bonferroni test", "method": "Effect of Administering S-1-Propenylcysteine (S1PC) and S-Allylcysteine (SAC) to Spontaneous Hypertensive Rats (SHR)\nas §1, with “eight” for “four”, “SHR/Izm” for “WKY/Izm”, “three” for “two”\nas §4, §3"}, "[3]": {"tested_on": "Spontaneous Hypertensive Rats (SHR)", "test": "Single oral administration of S1PC to spontaneous hypertensive rats, systolic blood pressure (Test Example 1)", "conditions": "SHR/Izm rats, single oral dose 6.5 mg/kg, 1.5 to 6 hours after the administration, t-test", "method": "Effect of Administering S-1-Propenylcysteine (S1PC) to Spontaneous Hypertensive Rats (SHR)\nas §1, with “eight” for “four”, “SHR/Izm” for “WKY/Izm”\nas §2, with “SHR” for “WKY”\nas §3, with “(1.5, 3,” for “(3,”"}},
  "data": [
    {"smiles": "CC=CSCC(N)C(=O)O", "note": "(centres unmarked) [S-1-propenylcysteine]", "values": [
      {"measurement": "antihypertensive effect (systolic blood pressure) on normotensive rats", "setting": "Normotensive Rats (WKY)", "value": "no significant antihypertensive effect"},
      {"measurement": "antihypertensive effect (systolic blood pressure) as compared with the control group", "setting": "[1]", "value": "significant antihypertensive effect"},
      {"measurement": "antihypertensive effect (systolic blood pressure) as compared with the control group", "setting": "[2]", "value": "significant antihypertensive effect"},
      {"measurement": "antihypertensive effect (systolic blood pressure) as compared with the control group", "setting": "[3]", "value": "significant antihypertensive effect"}
    ]},
    {"smiles": "C=CCSC[C@H](N)C(=O)O", "note": "[SAC, S-allylcysteine, reference compound]", "values": [
      {"measurement": "antihypertensive effect (systolic blood pressure) as compared with the control group", "setting": "[2]", "value": "no significant antihypertensive effect"}
    ]}
  ]
}
